We go through two compounds from patent US9464060B2, “Compounds” (TAKEDA PHARMACEUTICAL COMPANY LIMITED, priority 2013, dated 2016).

The target of series [1] is T1, LPA5 receptor (Homo sapiens (Human), UniProt Q9H1C0). To be noted: reported, cited from earlier work.
A short description of series [2]: In vivo bleomycin induced scleroderma model. More on the design: species or system C57BL/6 mice. To be noted: mice, bleomycin i.d. The procedure: In Vivo Bleomycin Induced Scleroderma Model Experimental Outline
Adult male C57BL/6 mice, aged 8-10 weeks, were assigned to groups and allowed to acclimatise for a week. On Day −1, the back skin of the animals was shaved. From Day 0, animals were administered with 100 μl of a 1 mg/ml solution of bleomycin sulphate in phosphate buffered saline (PBS) by intradermal injection in the shaved skin. Injections were repeated in a one square centimeter area every other day for four weeks. A group of ten animals (Control group) was injected with an identical volume of PBS. Animals were weighed at the beginning of the experiment on Day 0 and then twice weekly throughout the study. At the end of the experiment, on Day 28, animals were culled and samples of back skin were taken for further analysis. All groups were n=10; the vehicle was distilled water and the administration volume was 10 ml/kg for oral gavage (p.o.); administration volume was 25 μl for topical application.
Bodyweights were graphed along with the standard error of the mean (SEM); Skin samples (two punch biopsies per animal, 4 mm in diameter each) samples were hydrolyzed and hydroxyproline content of the samples was determined from analysis in a semi-automated process using a continuous flow analyzer. Autoanalyser readings were calibrated against hydroxyproline standards and collagen content calculated. […] Bleomycin administration induced a highly significant increase in skin collagen content when compared to the control, saline-injected, group (p<0.01).

In series [3] the target is T1, LPA5 receptor. In words: In vitro LPA5 receptor assay (LPA-driven intracellular calcium release, FLIPR). In kind it is cell-based. To be noted: RH7777 cells expressing human LPA5 receptors; LPA at EC90. In general terms: A change in cytosolic calcium serves as a functional read-out for many receptors and channels.
Another series concerns the target human LPA1 receptors (Homo sapiens (Human), UniProt Q92633). In words: In vitro LPA1 receptor assay (LPA-driven intracellular calcium release, FLIPR). To be noted: RH7777 cells expressing human LPA1 receptors; LPA at EC80. Type of series: cell-based.

A word on the EC50: it is the concentration that produces a half-maximal response. The term IC50 denotes the concentration needed to halve the response being measured.

T1 sequence (Q9H1C0 whole entry): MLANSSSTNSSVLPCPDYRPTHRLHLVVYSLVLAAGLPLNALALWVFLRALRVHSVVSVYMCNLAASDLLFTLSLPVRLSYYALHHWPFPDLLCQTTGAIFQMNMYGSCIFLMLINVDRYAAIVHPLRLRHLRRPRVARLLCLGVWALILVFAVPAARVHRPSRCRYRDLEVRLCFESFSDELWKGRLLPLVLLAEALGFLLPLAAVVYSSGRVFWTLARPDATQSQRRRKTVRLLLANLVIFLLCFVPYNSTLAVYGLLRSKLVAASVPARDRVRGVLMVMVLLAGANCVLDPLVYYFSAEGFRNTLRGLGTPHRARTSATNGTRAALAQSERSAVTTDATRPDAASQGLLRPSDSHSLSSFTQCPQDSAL
Sequence of human LPA1 receptors (Q92633 whole entry): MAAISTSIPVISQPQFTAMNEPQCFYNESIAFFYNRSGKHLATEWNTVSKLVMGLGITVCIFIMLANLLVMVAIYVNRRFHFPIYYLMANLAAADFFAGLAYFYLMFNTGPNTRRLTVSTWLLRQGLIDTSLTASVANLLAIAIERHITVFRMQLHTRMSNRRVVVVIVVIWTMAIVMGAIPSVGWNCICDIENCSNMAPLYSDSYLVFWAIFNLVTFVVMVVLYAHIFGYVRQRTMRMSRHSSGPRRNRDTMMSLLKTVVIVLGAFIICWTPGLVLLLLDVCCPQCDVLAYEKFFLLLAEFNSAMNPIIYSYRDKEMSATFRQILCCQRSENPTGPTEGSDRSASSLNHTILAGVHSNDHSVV

For the compound `CC(C)=CCC/C(C)=C/CC/C(C)=C/COP(=O)(O)OP(=O)(O)O` [Farnesyl pyrophosphate], the EC50 on LPA5 receptor [1] (LPA5 receptor, read-out: in-vitro EC50) was 49 nM. Besides, the “selectivity over other LPA receptors” value on LPA5 receptor [1] was 3 fold.

As for `O=C(O)c1ccc(CN(CC2CC2)C(=O)c2ccc(Oc3ccccc3F)cc2)cc1` [Example 5, 4-((N-(Cyclopropylmethyl)-4-(2-fluorophenoxy)benzamido)-methyl)benzoic acid], in series [2] (30 mg/kg p.o. BID), the “bodyweight loss compared to the vehicle-treated group” value is on record as “did not differ”. For the same compound, the “skin collagen content compared to the vehicle-treated group” value in series [2] (treatment from Day 0 to Day 28) is recorded as “significant reduction”; in series [2] (treatment from Day 14 to Day 28, 30 mg/kg p.o. BID) it was “significant reduction”. For the same compound, the half-inhibitory concentration (IC50) was found to be 16 nM on LPA5 receptor [3] and 46 nM on human LPA1 receptors.
